This note sets out measurements from patent US9670242B2, “Tetracyclic anthraquinone derivatives” (Tianjin Hemay Bio-Tech Co., Ltd, priority 2012, dated 2017).

One series concerns A431 cells. Kind of series: A431 cell growth inhibition test (MTT assay). In kind it is cell-based, human. The conditions noted are these: 72 h. The method, then:
A431 Cell Growth Inhibition Test (MTT Assay)
(§1) II. Reagents and Consumable Materials
Culture medium: 45% DMEM+45% F12+10% FBS (fetal calf serum); Pancreatin (0.25% (w/v) solution was formulated with PBS, 0.53 mM of EDTA was added in the formulation); PBS; 96-well culture plate.
(§2) 1. A plate (10 cm) of cells in logarithmic growth phase that were normally cultured was collected;
(§3) 2. The culture solution was sucked out. The plate was washed with 5 mL of PBS once or twice;
(§4) 3. PBS was sucked out. 1.5 mL of 0.25% pancreatin was added to the plate to infiltrate the cells for 1 min;
(§5) 4. The culture plate was placed in an incubator. Digestion was carried out for about 5 min at 37° C.;
(§6) 5. 3 mL of complete culture solution was added to the culture plate to stop the digestion. The cells were carefully scoured with micropipette (1 mL) to give a uniform cell suspension. The suspension was implanted into a 96-well cell culture disc by 2500 cells/100 μL per well. The culture plate was incubated overnight under 5% CO2 at 37° C. In day 2, 100 μL of culture solution comprising a compound was added in each well. The plate was further incubated for 72 h under 5% CO2 at 37° C.;
(§7) 6. The culture solution was sucked out;
(§8) 7. 100 μL of serum-free culture solution containing 0.5 mg/mL MTT was added in each well. The plate was incubated for 3 h;
(§9) 8. The culture solution was carefully sucked out;
(§10) 9. 100 μL of DMSO was added in each well and vibrated to dissolve;
(§11) 10. OD values were determined at 490 nM.
(§12) IV. Results and Treatments
(§13) 1. Calculation of Relative Inhibition Ratio The inhibition ratio of a compound on cell growth=(PC−n)/(PC−NC)×100%
(§14) PC: OD values of cells after normal growth in control wells without a compound;
(§15) n: OD values of cells after growth in test wells with a compound;
(§16) NC: Background OD values of blank wells without a compound and cells.

Another series relates to B16 cells. The experiment in a line: B16 cell growth inhibition test (MTT assay). In kind it is cell-based, mouse. The conditions noted are these: 72 h. The method, then: B16 Cell Growth Inhibition Test (MTT Assay)
as §1
(§17) Culture medium: 90% RPMI1640+10% FBS (fetal calf serum); Pancreatin (0.25% (w/v) solution was formulated with PBS, 0.53 mM of EDTA was added in the formulation); PBS; 96-well culture plate.
as §2, §3, §4
(§18) 4. The culture plate was placed in an incubator. Digestion was carried out for about 1 min at 37° C.;
as §6, §7
7. 100 μl of serum-free culture solution containing 0.5 mg/mL MTT was added in each well. The plate was incubated for 3 h;
as §9, §10, §11, §12, §13, §14, §15, §16
In general terms: Tetrazolium dyes change colour on reduction, which living cells bring about.

Another series relates to MCF-7 cells. The experiment in a line: MCF-7 cell growth inhibition test (SRB assay). In kind it is cell-based, human. The conditions noted are these: 73 h. The method, then:
MCF-7 Cell Growth Inhibition Test (SRB Assay)
as §1
Culture medium: 90% EMEM+10% FBS; Pancreatin (0.25% (w/v) solution was formulated with PBS, 0.53 mM of EDTA was added in the formulation); PBS; 96-well culture plate.
as §2, §3
(§19) 3. 1.5 mL of 0.25% pancreatin was added to the plate to infiltrate the cells;
4. The pancreatin was sucked out. The culture plate was placed in an incubator. Digestion was carried out for about 3 min at 37° C.;
5. 4 mL of complete culture solution was added to the culture plate to stop the digestion. The cells were carefully scoured with micropipette (1 mL) to give a uniform single cell suspension. The suspension was implanted into a 96-well cell culture plate by 10000 cells/100 μL per well. The culture plate was incubated overnight under 5% CO2 at 37° C. In day 2, 100 μL of culture solution comprising a compound was added in each well. The plate was further incubated for 73 h under 5% CO2 at 37° C.;
(§20) 6. The culture solution was sucked out. 100 uL of TCA fixed cells which were diluted to 10% were added to each well. The plate was kept in a refrigerator for 1 h at 4° C.
7. TCA stationary liquid was sucked out. Each well was washed with 150 μL of ddH2O five times;
8. After the stationary liquid was cleansed, the plate was dried in the air at the room temperature;
9. 60 μL of SRB staining solution was added in each well. The well was stained for 15 min at the room temperature;
10. The SRB staining solution was sucked out. Each well was washed with 150 μL of 1% glacial acetic acid five times;
11. After the SRB staining solution was cleansed, the plate was dried in the air at the room temperature;
12. 100 μL of 10 mM Tris was added in each well. The plate was vibrated to dissolve out SRB;
13. OD values were determined at 570 nM.
as §12
1. Calculation of Relative Inhibition Ratio The inhibition ratio of a compound on cell growth=(PC−n)/(PC−NC)×100% […]
In general terms: The SRB assay estimates cell density from bound dye.

The subject of the next series is NCI-446 cells. The experiment in a line: NCI-446 cell growth inhibition test (MTT assay). In kind it is cell-based, human. The conditions noted are these: 72 h. The method, then: NCI-446 Cell Growth Inhibition Test (MTT Assay)
II. Reagents and Consumable Materials Culture medium: 90% RPMI1640+10% FBS (fetal calf serum); Pancreatin (0.25% (w/v) solution was formulated with PBS, 0.53 mM of EDTA was added in the formulation); PBS; 96-well culture plate.
as §2
2. The culture solution was sucked out. The plate was washed with 5 ml of PBS once or twice;
as §4
(§21) 4. The culture plate was placed in an incubator. Digestion was carried out for about 3 min at 37° C.;
(§22) 5. 3 mL of complete culture solution was added to the culture plate to stop the digestion. The cells were carefully scoured with micropipette (1 mL) to give a uniform cell suspension. The suspension was implanted into a 96-well cell culture disc by 4000 cells/100 μL per well. The culture plate was incubated overnight under 5% CO2 at 37° C. In day 2, 100 μL of culture solution comprising a compound was added in each well. The plate was further incubated for 72 h under 5% CO2 at 37° C.;
as §7, §8, §9
9. […]
(§23) 10. OD values were determined at 490 nM. […]

Another series concerns DU-145 cells. Kind of series: DU-145 cell growth inhibition test (MTT assay). It is filed as cell-based. The conditions noted are these: 72 h. The method, then: DU-145 Cell Growth Inhibition Test (MTT Assay)
as §1
Culture medium: 90% EMEM+10% FBS (fetal calf serum); Pancreatin (0.25% (w/v) solution was formulated with PBS, 0.53 mM of EDTA was added in the formulation); PBS; 96-well culture plate.
as §2, §3, §4, §18, §22, §7, §8, §9, §10, §11, §12, §13, §14, §15, §16

The subject of a further series is NCI-H460 cells. Kind of series: NCI-H460 cell growth inhibition test (MTT assay). It is filed as cell-based, human. The conditions noted are these: NCI-460 cells (NCI-H460 in method), 72 h. The method, then:
NCI-H460 Cell Growth Inhibition Test (MTT Assay)
as §1, §17, §2, §3, §4, §21
5. 3 mL of complete culture solution was added to the culture plate to stop the digestion. The cells were carefully scoured with micropipette (1 mL) to give a uniform cell suspension. The suspension was implanted into a 96-well cell culture disc by 2000 cells/100 μL per well. The culture plate was incubated overnight under 5% CO2 at 37° C. In day 2, 100 μL of culture solution comprising a compound was added in each well. The plate was further incubated for 72 h under 5% CO2 at 37° C.;
as §7, §8, §9
9. […]
as §23

In another series the test system is A375 cells. The experiment in a line: A375 cell growth inhibition test (MTT assay). In kind it is cell-based, human. The conditions noted are these: 72 h. The method, then:
A375 Cell Growth Inhibition Test (MTT Assay)
as §1
Culture medium: 90% DMEM+10% FBS (fetal calf serum); Pancreatin (0.25% (w/v) solution was formulated with PBS, 0.53 mM of EDTA was added in the formulation); PBS; 96-well culture plate.
as §2, §3, §4, §5
5. 3 mL of complete culture solution was added to the culture plate to stop the digestion. The cells were carefully scoured with micropipette (1 ml) to give a uniform cell suspension. The suspension was implanted into a 96-well cell culture disc by 3000 cells/100 μL per well. The culture plate was incubated overnight under 5% CO2 at 37° C. In day 2, 100 μL of culture solution comprising a compound was added in each well. The plate was further incubated for 72 h under 5% CO2 at 37° C.;
as §7, §8, §9, §10, §11, §12, §13, §14, §15, §16

The nature of series [1]: Storage stability detected by HPLC. It is filed as physicochemical. The conditions noted are these: sealed and stored for 9 months under refrigeration conditions.
A short description of series [2]: Solubility of the compound in water. It is filed as physicochemical.
The test system of the next series is SK-Br-3 cells. The experiment in a line: SK-Br-3 cell growth inhibition test (SRB assay). In kind it is cell-based, human. The conditions noted are these: 72 h. The method, then:
SK-Br-3 Cell Growth Inhibition Test (SRB Assay)
as §1
Culture medium: 85% DMEM+15% FBS; pancreatin (0.25% (w/v) solution was formulated with PBS, 0.53 mM of EDTA was added in the formulation); PBS; 96-well culture plate.
as §2, §3, §19
4. The pancreatin was sucked out. The culture plate was placed in an incubator. Digestion was carried out for about 2 min at 37° C.;
5. 4 mL of complete culture solution was added to the culture plate to stop the digestion. The cells were carefully scoured with micropipette (1 mL) to give a uniform single cell suspension. The suspension was implanted into a 96-well cell culture plate by 10000 cells/100 μL per well. The culture plate was incubated overnight under 5% CO2 at 37° C. In day 2, 100 μL of culture solution comprising a compound was added in each well. The plate was further incubated for 72 h under 5% CO2 at 37° C.;
as §20
7. TCA stationary liquid was sucked out. […]
13. OD values were determined at […]. […]

Consider `COc1cccc2c1C(=O)c1c(O)c3c(c(O)c1C2=O)CC(O)(C(=O)COC(=O)CCC(=O)NCCN1CCOCC1)CC3O[C@H]1C[C@H](n2cccc2)[C@H](O)[C@H](C)O1` (stereo partly drawn) [Example 89, 10-((3′-(pyrrol-1-yl)-2′,3′,6′-trideoxy-alphal-l-lyxo-hexylpyranyl)oxy)-7,8,9,10-tetrahydro-6,8,11-trihydroxy-13-oxo-14-(4-((2-(morpholin-1-yl)ethyl)amino)-4-oxo-butyrato)-1-methoxy-5,12-naphthalenedione acetate], for which the IC50 (usually the concentration at which inhibition is half-maximal) with A431 cells was 46 nM; in the series with B16 cells, 3 nM; in the series with MCF-7 cells it was 333 nM; in the series on NCI-446 cells, 140 nM; in the series with DU-145 cells, 56 nM; with NCI-H460 cells, 2.5 nM. Moreover, the half-maximal inhibitory concentration (IC50) with A375 cells was determined as 48 nM.

Regarding `COc1cccc2c1C(=O)c1c(O)c3c(c(O)c1C2=O)CC(O)(C(=O)COC(=O)CCC(=O)NCCN1CCOCC1)CC3O[C@H]1C[C@H](n2cccc2)[C@H](O)[C@H](C)O1.O=P(O)(O)O` (stereo partly drawn) [Example 96, 10-((3′-(pyrrol-1-yl)-2′,3′,6′-trideoxy-alphal-l-lyxo-hexylpyranyl)oxy)-7,8,9,10-tetrahydro-6,8,11-trihydroxy-13-oxo-14-(4-((2-(morpholin-1-yl)ethyl)amino)-4-oxo-butyrato)-1-methoxy-5,12-naphthalenedione phosphate], the “stability on storage (degraded product by HPLC)” value in [1] was “No obvious degraded product was observed”. Besides, in [2], the “solubility of the compound in water” value is “more than 26 mg/ml”.

For `COCCOCCOCCOCCOCCOCCOCCOCCOCCNC(=O)CCC(=O)OCC(=O)C1(O)Cc2c(O)c3c(c(O)c2C(OC2CC(n4cccc4)C(O)C(C)O2)C1)C(=O)c1c(OC)cccc1C3=O` (stereo not shown) [Example 98], the half-inhibitory concentration (IC50) with SK-Br-3 cells is 15 nM.
